This experiment concerns the target Carbonic anhydrase 9 (Homo sapiens, UniProt Q16790).
What is called Ki is a measure of affinity in units of concentration, obtained from inhibition or displacement. Lower therefore signals higher affinity. Regarding `Cn1nc(S(N)(=O)=O)s/c1=N/C(=O)CCSSCCC(=O)/N=c1/sc(S(N)(=O)=O)nn1C`, affinity was put at a Ki of 9.3 nM.

As for `NS(=O)(=O)c1nnc(NC(=O)CCS)s1`, affinity was put at a Ki of 3.6 nM. This Ki is about 2.6-fold lower than that of the compound before.

`NS(=O)(=O)c1ccc(CCNC(=O)CCSSCCC(=O)NCCc2ccc(S(N)(=O)=O)cc2)cc1`: the inhibition constant Ki is 71 nM.
